{"source": "patent US20040219201A1", "about": "“Tempamine compositions and methods of use” (priority 2001, published 2004)", "key": {"[1]": {"tested_on": "MCF-7 (human breast adenocarcinoma)", "test": "Cytotoxicity assay (methylene blue); nitroxides alone or doxorubicin plus tempamine", "assay_type": "cell-based", "protocol": "As described in Example 1, the cytotoxicity of tempamine was determined on three cell lines, MCF-7 (human breast adenocarcinoma), M-109S (doxorubicin-sensitive human breast carcinoma), and M-109R (doxorubicin-resistant human breast carcinoma). The effect of free tempamine on cell proliferation was determined by a methylene blue assay as described in Example 1B.\nFIG. 4 is a plot comparing the percent survival of MCF-7 human breast carcinoma cells at various doses of tempamine (closed circles) and tempol (open circles) in vitro. The cells were analyzed after 72 hours of exposure to the nitroxides. Tempamine and tempol cell growth inhibitory activities were of similar magnitude.\nIn yet another aspect, the invention contemplates administration of tempamine in combination with chemotherapeutic agent. […] Doxorubicin was chosen as a model chemotherpeutic agent. The enhancement of doxorubicin cytotoxicity by tempamine was tested on three cell lines, as described in Example 1A. A cytotoxicity assay as described in Example 1B was used. Two of the cell lines, MCF-7 and M-109S, were doxorubicin-sensitive lines and one cell line, M-109R, was doxorubicin resistant. MCF-7 cells are more sensitive to tempamine (100 μM caused 75% growth inhibition), but are less sensitive to doxorubicin, than are M-109S cells.\nMCF-7 (human breast adenocarcinoma), M-109S (doxorubicin-sensitive human breast carcinoma), and M-109R (doxorubicin-resistant human breast carcinoma) were maintained in RPMI medium (Biological Industries, Beit HaEmek, Israel) supplemented with 10% fetal calf serum (FCS). The cell lines were maintained under standard culture conditions at 37° C. in a humidified 5% CO2 atmosphere.\nThe effect of tempamine on cell proliferation was determined by the methylene blue assay (Horowitz, A. T., et al., Biochim BiophysActa. 1109:203, (1992)). Briefly, cells were seeded onto 96-well plates (MCF cells at a density of 6×10^3 cells per well, and M-109S and M-109R at a density of 1.5×10^3 cells per well) and allowed to grow for 24 hours prior to treatment with different concentrations of tempamine. After the addition of tempamine (5×10^−5 to 4×10^−4), the cells were incubated in RPMI +10% FCS for four days without change of medium. Then the cells were fixed with 2.5% glutaraldehyde, stained with methylene blue and assayed spectrophotometrically."}, "[2]": {"test": "n-octanol/water partition coefficient (Kp)", "assay_type": "physicochemical", "conditions": "ammonium sulfate 0 mM; TMN 20 μmole"}}, "data": [{"smiles": "CC1(C)CC(N)CC(C)(C)N1[O]", "note": "[tempamine, 2,2,6,6-tetramethylpiperidine-4-amino-1-oxyl]", "values": [{"measurement": "IC50", "setting": "[1]; Homo sapiens, MCF7, 72 h, read-out: IC50 (cell growth inhibition)", "value": 210, "unit": "µM"}, {"measurement": "growth inhibition", "setting": "[1]; MCF-7, 100 μM tempamine", "value": 75, "unit": "%"}, {"measurement": "n-octanol/aqueous phase (Kp), pH 4", "setting": "[2]", "value": 0.111}, {"measurement": "n-octanol/aqueous phase (Kp), pH 10.6", "setting": "[2]", "value": 2.331}]}]}
